These are literature values, as cited in patent publication US20070287651A1, “Bleaching compositions” (The Procter & Gamble Company, priority 2006, published 2007).

Structures are written as SMILES.

The conditions of this data set: deionized water at 25° C. (definition).

Take `c1ccc2oc(-c3ccc(-c4nc5ccccc5o4)s3)nc2c1` [Tinopal SOP, benzoxazole,2,2′-(thiophenaldyl)bis]: the solubility in water entry was “lower than 1 gram per liter”.
